Drawing on ChEMBL document CHEMBL1201862, “PubChem BioAssay data set” (2004), this text covers AC50 and EC50 for 24 compounds.

Some targets named below: Cytochrome P450 3A4 (Homo sapiens, UniProt P08684); Cytochrome P450 2D6 (Homo sapiens, UniProt P10635); Cytochrome P450 2C9 (Homo sapiens, UniProt P11712).
A further data set has as its target Cytochrome P450 2C19 (Homo sapiens, UniProt P33261). As to the kind of experiment: Cytochrome panel assay with activity outcomes. Panel member name: p450-cyp2c19 Compounds with AC50 equal or less than 10 uM are considered active. The class given is functional.
The nature of data set [1]: Luminescence Cell-Based Dose Confirmation HTS to Identify Inhibitors of Platelet Dense Granule Release. [Related pubchem assays: 1663 (Primary HTS), 1678 (Summary of Project)]. In kind it is functional.
The target in data set [2] is Luciferin 4-monooxygenase (Photinus pyralis, UniProt P08659). As to the kind of experiment: inhibition of purified Photinus pyralis luciferase – biochemical, luminescence, dose response (AID 1891).
A further data set has as its target T1, Cytochrome P450 1A2 (Homo sapiens, UniProt P05177).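 Note: PubChem cytochrome P450 panel assay, CYP1A2 panel member.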
T1 sequence (P05177 whole entry): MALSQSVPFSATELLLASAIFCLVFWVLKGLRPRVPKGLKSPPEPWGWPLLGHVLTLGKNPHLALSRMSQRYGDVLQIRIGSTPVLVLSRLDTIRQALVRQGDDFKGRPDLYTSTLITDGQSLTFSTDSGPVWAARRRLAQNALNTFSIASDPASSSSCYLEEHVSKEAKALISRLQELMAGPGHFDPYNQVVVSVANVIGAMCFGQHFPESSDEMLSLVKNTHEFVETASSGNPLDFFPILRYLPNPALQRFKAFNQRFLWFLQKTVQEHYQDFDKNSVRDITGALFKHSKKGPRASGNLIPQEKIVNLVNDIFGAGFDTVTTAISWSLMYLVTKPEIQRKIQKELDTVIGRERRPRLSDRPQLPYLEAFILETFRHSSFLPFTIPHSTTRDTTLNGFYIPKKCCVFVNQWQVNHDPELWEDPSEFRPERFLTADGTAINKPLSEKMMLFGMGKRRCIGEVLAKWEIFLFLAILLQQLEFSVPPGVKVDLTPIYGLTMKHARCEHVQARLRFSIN

The test system of another data set is INS1. As to the kind of experiment: INS-1E survival protection against cytokine death – cell-based, luminescence, retest, dose response (AID 449756).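 Note: cell death triggered by IL-1 beta plus TNF-alpha plus IFN-gamma mixture; protective hits raise ATP signal compared with cytokine alone wells.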 In kind it is functional. The following applies: Rattus norvegicus.

Active and inactive are the calls of the source.

Chain of Cytochrome P450 3A4 (P08684 whole entry): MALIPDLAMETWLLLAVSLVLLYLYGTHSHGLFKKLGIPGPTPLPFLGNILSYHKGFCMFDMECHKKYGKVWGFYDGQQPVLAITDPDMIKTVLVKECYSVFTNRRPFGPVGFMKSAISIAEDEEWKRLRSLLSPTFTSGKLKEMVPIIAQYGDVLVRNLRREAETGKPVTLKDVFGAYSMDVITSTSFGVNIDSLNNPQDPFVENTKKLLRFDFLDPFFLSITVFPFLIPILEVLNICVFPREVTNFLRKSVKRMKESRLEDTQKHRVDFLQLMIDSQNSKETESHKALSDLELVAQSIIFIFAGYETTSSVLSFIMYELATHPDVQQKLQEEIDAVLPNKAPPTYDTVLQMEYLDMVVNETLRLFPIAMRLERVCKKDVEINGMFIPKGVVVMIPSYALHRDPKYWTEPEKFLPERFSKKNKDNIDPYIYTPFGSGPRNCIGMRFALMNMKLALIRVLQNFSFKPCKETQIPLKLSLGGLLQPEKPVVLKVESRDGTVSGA
Chain of Luciferin 4-monooxygenase (P08659 whole entry): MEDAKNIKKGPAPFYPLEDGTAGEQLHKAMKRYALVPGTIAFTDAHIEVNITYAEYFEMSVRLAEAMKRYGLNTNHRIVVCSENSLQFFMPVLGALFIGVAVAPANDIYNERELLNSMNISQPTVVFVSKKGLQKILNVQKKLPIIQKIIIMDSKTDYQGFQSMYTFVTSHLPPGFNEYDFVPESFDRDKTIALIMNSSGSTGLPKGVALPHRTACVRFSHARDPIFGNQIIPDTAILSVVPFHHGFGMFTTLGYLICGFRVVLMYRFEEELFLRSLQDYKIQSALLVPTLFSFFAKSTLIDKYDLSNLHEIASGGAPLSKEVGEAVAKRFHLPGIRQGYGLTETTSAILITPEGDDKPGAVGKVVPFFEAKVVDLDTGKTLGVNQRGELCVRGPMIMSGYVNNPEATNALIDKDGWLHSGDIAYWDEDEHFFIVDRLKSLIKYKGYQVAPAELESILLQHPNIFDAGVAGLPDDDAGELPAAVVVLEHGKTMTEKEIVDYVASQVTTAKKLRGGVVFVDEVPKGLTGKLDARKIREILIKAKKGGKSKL
Chain of Cytochrome P450 2C19 (P33261 whole entry): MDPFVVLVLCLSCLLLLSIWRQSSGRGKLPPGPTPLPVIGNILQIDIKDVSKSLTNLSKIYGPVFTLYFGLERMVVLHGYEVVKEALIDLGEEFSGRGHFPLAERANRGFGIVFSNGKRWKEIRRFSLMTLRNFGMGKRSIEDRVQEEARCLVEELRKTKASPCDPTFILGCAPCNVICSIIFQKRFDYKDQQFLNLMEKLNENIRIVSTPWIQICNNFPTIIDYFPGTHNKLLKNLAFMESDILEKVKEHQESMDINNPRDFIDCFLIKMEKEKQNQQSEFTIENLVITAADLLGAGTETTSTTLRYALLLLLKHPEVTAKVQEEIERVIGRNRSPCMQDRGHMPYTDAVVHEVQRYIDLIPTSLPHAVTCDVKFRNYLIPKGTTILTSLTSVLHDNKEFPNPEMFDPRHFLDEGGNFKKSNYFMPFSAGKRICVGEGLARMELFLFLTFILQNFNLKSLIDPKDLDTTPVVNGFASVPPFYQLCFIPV
Chain of Cytochrome P450 2C9 (P11712 whole entry): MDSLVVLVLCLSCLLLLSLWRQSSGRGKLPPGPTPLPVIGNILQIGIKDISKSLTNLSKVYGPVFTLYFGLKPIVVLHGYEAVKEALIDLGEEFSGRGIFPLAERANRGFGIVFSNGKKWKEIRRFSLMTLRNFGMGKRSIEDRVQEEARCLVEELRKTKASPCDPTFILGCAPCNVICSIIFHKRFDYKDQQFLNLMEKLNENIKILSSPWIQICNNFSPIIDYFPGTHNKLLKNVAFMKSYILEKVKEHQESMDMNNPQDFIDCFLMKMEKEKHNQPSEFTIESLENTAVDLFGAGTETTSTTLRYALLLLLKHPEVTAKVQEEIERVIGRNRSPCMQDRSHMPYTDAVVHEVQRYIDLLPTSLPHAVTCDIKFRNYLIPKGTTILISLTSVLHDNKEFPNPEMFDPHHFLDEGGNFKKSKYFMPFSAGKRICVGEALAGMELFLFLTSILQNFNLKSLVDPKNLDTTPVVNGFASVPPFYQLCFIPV
Chain of Cytochrome P450 2D6 (P10635 whole entry): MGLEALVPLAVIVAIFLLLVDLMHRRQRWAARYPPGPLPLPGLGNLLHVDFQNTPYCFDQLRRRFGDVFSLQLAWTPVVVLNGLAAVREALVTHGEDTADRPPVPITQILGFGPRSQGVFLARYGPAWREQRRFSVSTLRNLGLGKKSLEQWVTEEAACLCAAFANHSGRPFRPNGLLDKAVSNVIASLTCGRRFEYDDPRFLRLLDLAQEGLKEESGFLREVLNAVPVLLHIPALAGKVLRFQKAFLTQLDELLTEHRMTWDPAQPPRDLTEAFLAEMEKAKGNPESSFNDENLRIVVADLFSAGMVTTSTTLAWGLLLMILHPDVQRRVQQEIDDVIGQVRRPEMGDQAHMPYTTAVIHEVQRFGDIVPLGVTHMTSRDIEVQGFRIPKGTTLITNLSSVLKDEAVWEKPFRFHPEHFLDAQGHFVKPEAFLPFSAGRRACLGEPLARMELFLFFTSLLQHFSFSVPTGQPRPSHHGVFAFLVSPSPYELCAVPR

For `COc1cc(N)c(Cl)cc1C(=O)OCCCN1CCCCC1`, on Cytochrome P450 3A4, the AC50 was 25.1 µM (inconclusive).
In the case of `COc1cc(C(=O)N2CCC(NC(=O)C(Cc3ccc(C(C)C)cc3)NC(C)=O)CC2)cc(OC)c1OC` (centres undefined), the results for the AC50 at Cytochrome P450 2C19 (read-out: AC50) and at Cytochrome P450 3A4 were 22.4 µM (inconclusive) and 17.8 µM (inconclusive), respectively.
Regarding `COc1ccc(-n2c(=O)cnc3cnc(N(C)C)nc32)cc1`, the AC50 on Cytochrome P450 2C19 (read-out: AC50) and at Cytochrome P450 3A4 was 39.8 µM (inconclusive) in each case.
For `COc1ccccc1NC(=O)C1=C(C)Nc2nnnn2C1c1ccccc1OC` (centres undefined), the figures for the EC50 in data set [1] and in data set [2] were 72.3 µM (active) and > 112 µM (not active), respectively.
For `Cn1c(=S)oc2ccccc21` the same measures were > 112 µM (not active) and > 112 µM (not active).
For `Cc1cc(NC(=O)c2cc3ncc(Br)cn3n2)no1` the same measures were > 112 µM (not active) and > 112 µM (not active).
As for `COc1ccc(CNc2ncnc3ccc(-c4ccc5c(c4)OCO5)cc23)c(OC)c1`, the AC50 was 2.51 µM (active) at Cytochrome P450 2D6 and 0.794 µM (active) at Cytochrome P450 3A4.
As to `O=C(CSc1nncn1-c1ccccc1)Nc1ccc(N2CCOCC2)cc1`, the AC50 is 12.6 µM (inconclusive) on Cytochrome P450 2C9, 39.8 µM (inconclusive) on Cytochrome P450 1A2 and 3.16 µM (inconclusive) on Cytochrome P450 3A4.
`Cc1cc(C)cc(C(=O)N(C)[C@H](Cc2ccc(-c3ccccc3)cc2)C(=O)N[C@@H](Cc2c[nH]c3ccccc23)C(=O)O)c1`: the figures for the AC50 on Cytochrome P450 1A2 and on Cytochrome P450 3A4 were 39.8 µM (inconclusive) and 25.1 µM (inconclusive), respectively.
With `CCN(CC(=O)NCc1ccc(Cl)cc1)C(=O)CSc1ccc(Br)cc1`, the EC50 in data set [1] was > 112 µM (not active); in data set [2], 43.9 µM (active).
As to `Cc1cccc(NC(=O)Cn2c(/C=C/c3ccccc3)nc3ccccc32)c1`, the AC50 in the data set on INS1 is 30.6 µM (active).
Still for that read-out and setting: the value for `O=[N+]([O-])c1ccc(N2CCN(C(S)=Nc3ccc(F)cc3)CC2)cc1` was 33.9 µM (active).
Take `CCOC(=O)CSc1nc(O)c2c(n1)-c1ccccc1CC2(C)CC` (centres undefined): the AC50 with INS1 is 40.1 µM (active).
Regarding `CN(C)C(=O)c1ccc(-c2nccc(Nc3ccc(F)cc3)n2)cc1`, the AC50 at Cytochrome P450 3A4 is 10 µM (inconclusive).
Regarding `Cc1cc(C)c(NC(=O)CSc2ccc3nnc(CCNC(=O)c4ccccc4)n3n2)c(C)c1`, the EC50 in data set [1] and in data set [2] was > 112 µM (not active) each time.
Take `CC(=O)OCCNC(=O)Cn1cnc2c1c(=O)n(C)c(=O)n2C`: the EC50 in data set [1] and in data set [2] was > 112 µM (not active) in each case.
As for `Cc1nc2cnc(N3CCOCC3)nc2n(Cc2cccs2)c1=O`, the results for the AC50 at Cytochrome P450 2C9, at Cytochrome P450 2D6 and at Cytochrome P450 3A4 were 15.8 µM (inconclusive), 39.8 µM (inconclusive) and 7.94 µM (inconclusive), respectively.
In the case of `Cn1c(SCC(=O)N2CCCC2)nnc1-c1cccs1`, the EC50 in data set [1] and in data set [2] was > 112 µM (not active) in each case.
Regarding `Cc1ccc(NC(=O)CCc2c(C)nc3ncnn3c2C)nc1`, the half-maximal activity concentration (AC50) result at Cytochrome P450 2C19 is “inconclusive”; on Cytochrome P450 3A4, 15.8 µM (inconclusive).
On to `Cc1ccc(C(=O)N/N=C\c2cccn2C)cn1`, for which the AC50 is 89.1 µM (inconclusive) at Cytochrome P450 2C9 and 0.316 µM (inconclusive) on Cytochrome P450 3A4.
On to `O=C(CSc1nnc(-c2cccnc2)n1Cc1ccccc1)N1CCOCC1`, for which the EC50 is 17.2 µM (active) in data set [1] and > 112 µM (not active) in data set [2].
Turning to `CP(=O)(O)C1=CCNCC1`, the AC50 on Cytochrome P450 3A4 was 39.8 µM (inconclusive).
With `O=C(c1cccc(S(=O)(=O)N2CCOCC2)c1)N1CCN(c2ccc(F)cc2)CC1`, the EC50 in data set [1] and in data set [2] was > 112 µM (not active) in each case.
For `COc1ccc(-c2csc(CCn3nc(C)cc3C)n2)cc1`, the EC50 in data set [1] and in data set [2] was > 112 µM (not active) throughout.
